US5612474A, “Acid labile immunoconjugate intermediates” (Eli Lilly and Company, priority 1994, dated 1997)
Values after ≈ are worked out from the molar mass of the structure shown.

Assays:
[1] = system: LS-174T human colon carcinoma; assay: Cytotoxicity assay of immunoconjugates, 3H-leucine uptake, 48 hours; format: cell-based; conditions: LS174T, LS 174T cells, 48 hours incubation, concentrations in terms of drug contained in conjugate
Description: Table III uses several abbreviations which are defined as follows. The terms D612, COL-1, CC83, and CC49 refer to specific murine monoclonal antibodies which are described in detail in the Antibody section of the Detailed Description. […] "CR#" is an abbreviation for conjugation ratio. "MIR" refers to the molar input ratio of the linker-drug relative to the antibody.

CCRF-CEM cells = assay: In vitro antitumor activity / growth inhibition of CCRF-CEM cells, 72 hours; format: cell-based; conditions: Homo sapiens, serum-free UltraCHO media, read-out: IC50 (50% inhibition of growth)
Description: The in vitro data were obtained using CCRF-CEM cells, a human leukemia cell line. Foley et al., Cancer, 18:522 (1965). These cells were grown in albumin-free UltraCHO® media (BioWhittaker, Inc., Walkersville, Md.) using standard techniques. See, e.g., G. B. Grindey, et al., Journal of Molecular Pharmacology, 16:601 (1979). Dose-response curves were generated for various compounds to determine the concentration required for 50% inhibition of growth (IC50). Cluster plates were prepared in duplicate with the compound at various concentrations. Test compounds were dissolved initially in DMSO at a concentration of 4 mg/ml and further diluted with solvent to the desired concentration. Cells in serum-free UltraCHO media were added to the well at a final concentration of 4.8×10^4 cells/well in a total volume of 2.0 ml. After 72 hours of incubation (95% air, 5% CO2), cell numbers were determined on a ZBI Coulter counter. Cell number for indicated controls at the end of incubation was usually (4-6)×10^5 cells/well. Cell viability was also measured by staining with 3-[4,5-dimethylthiazol-2-yl]-2,5-diphenyl-tetrazolium bromide (MTT) using standard techniques. R. I. Freshhey, Culture of Animal Cells: A Manual of Basic Technique, 253-354 (2d ed. 1987).
Column 1 refers to the example number of the compound tested; Column 2 depicts the in vitro cytoxicity against CCRF-CEM cells by relating the concentration of the test compound required for 50% inhibition of growth (IC50) of the cells in the well.

[2] = system: HC-1 human colon carcinoma xenograft; assay: Antitumor activity against HC-1 human colon carcinoma xenografts in nude mice; format: in vivo, human tumor in CD1 Nu/Nu mice; conditions: for Activity (overall): overall activity over all doses
Description: One of the tumor models used for showing the anti-neoplastic activity of the prodrugs of this invention were the human colon xenografts, HC-1 human colon xenograft. This tumor model was obtained from the Division of Cancer Treatment, National Cancer Institute, Tumor Bank.
First passage tumors were stored in liquid nitrogen, using standard techniques. The transplanted tumor was reestablished from the Tumor Bank every six months or as needed. The tumor was maintained by serial passage twice weekly in nude mice.
In the procedures utilized here, the tumor was removed from passage animals and minced into 1- to 3-mm cubic fragments using sterile techniques. Tumor pieces were checked for sterility using both Antibiotic Medium 1 and Brain Heart Infusion (Difco, Detroit, Mich.). The xenograft tumor pieces were implanted into the recipient CD1 Nu/Nu mice subcutaneously in an axillary site by trochar.
Drug therapy on the appropriate schedule was initiated 14 days after tumor implantation for the mice bearing the xenograft tumors. The compound being tested was mixed with 2.5% Emulphor EL620 from GAP Corporation (1:40 dilution in 0.9% saline). The total dosage volume for each administration was 0.5 ml. All animals were weighed at the beginning and end of administration of the subject compounds. Food and water were provided ad libitum.
Each control group and each dosage level of the treated groups consisted of 9 or 10 mice selected at random from the pool of implanted animals. The formulations were administered intraperitoneally. Compounds were dosed on days 1, 4, 7, and 10 for all prodrugs except for MMeT which was dosed on days 1,5, and 9.
The tumor was measured five days after treatment ended with two dimensional measurements (width and length) of the tumor taken using digital electronic calipers interfaced to a microcomputer. J. P. Worzalla, et al., Investigational New Drugs, 8:241-251 (1990). Tumor weights were calculated from these measurements using the following formula: [formula] At least one control group of an equal number of mice was treated with the same volume of 2.5% Emulphor only. The percent inhibition is determined by subtracting the ratio of the mean tumor size of the test group relative to the control group from one and multiplying the result by 100.
The results of several experiments in mice bearing the HC-1 human colon carcinoma when the Formula III compounds were administered orally are provided in Table V. Row 1 describes the particular compound being tested. Row 15 describes the overall activity of the compound. Column 1 gives the dosage level of the compound of Formula III and ADDFA in mg/kg. The second column gives the percent inhibition of tumor growth by the ADDFA given systemically. Colums 3 through 7 gives the percent inhibition of tumor growth of the compounds of Formula III.

[3] = Cardiotoxicity / toxicity of free drug versus trityl prodrug (no method described); conditions: for use in oncolytic therapy
[4] = Release studies: rate of free drug release from isopropylamide linker-drug by NMR; format: physicochemical
Description: The isopropylamide linker-drug (2 mg) was dissolved in 0.3 ml of dry deuterated methanol (CD3 OD). A solution of potassium phosphate buffer in deuteratured water (D2 O) (0.2 ml) of appropriate pH was added. The resulting solution was transferred to an NMR tube and heated at 37° C. and NMR spectra were recorded periodically. The rate of appearance of free drug and the rate of disappearance of the starting material were calculated from the peak integrals at: […]
NMR spectra (CD3 OD/0.1M KD2 PO4)

[5] = pH 5.40, CD3OD/0.1M KD2PO4, 37° C.
[6] = pH 6.40, CD3OD/0.1M KD2PO4, 37° C.
[7] = pH 7.40, CD3OD/0.1M KD2PO4, 37° C., extrapolated

For `Nc1nc(N)c2ncn([C@@H]3O[C@H](CO)[C@@H](O)C3(F)F)c2n1` [ADDFA, 2-Amino-2'-deoxy-2',2'-difluoroadenosine, reference compound], the IC50 [1] was 0.26 µg/mL (≈ 0.86 µM), the IC50 (CCRF-CEM cells) was 0.024 µg/mL (≈ 0.0794 µM) and the “Percent Inhibition” value ([2]; 17.5 mg/kg) was 100%. For the same compound, the “Percent Inhibition” value ([2]; 20.0 mg/kg) was 100%, the “Percent Inhibition” value ([2]; 25.0 mg/kg) was 100% and the “Percent Inhibition” value ([2]; 32.5 mg/kg) was 100%. For the same compound, the “Percent Inhibition” value ([2]; 35.0 mg/kg) was 100%, the “Percent Inhibition” value ([2]; 40.0 mg/kg) was 100% and the “Percent Inhibition” value ([2]; 50.0 mg/kg) was 100%. For the same compound, the “Percent Inhibition” value ([2]; 65.0 mg/kg) was 100%, the “Percent Inhibition” value ([2]; 70.0 mg/kg) was 100% and the “Percent Inhibition” value ([2]; 80.0 mg/kg) was 100%. The “Percent Inhibition” value ([2]; 100.0 mg/kg) was 100%, the “Percent Inhibition” value ([2]; 130.0 mg/kg) was 100% and the “Activity (overall)” value [2] was “+++ (95-100% Inhibition)”. For the same compound, the cardiotoxicity [3] was “too much cardiotoxicity”.

For `COc1ccc(C(Nc2nc(N)nc3c2ncn3[C@@H]2O[C@H](CO)[C@@H](O)C2(F)F)(c2ccc(OC)cc2)c2ccc(C(=O)NC(C)C)cc2)cc1` [DMT, N-Isopropyl-4-[bis-(4-methoxyphenyl)-6-N-[2-amino-9-(2'-deoxy-2',2'-difluoro-β-ribofuranosyl)purinyl]methyl]benzamide], the t1/2 [4, 5] was 3.71 h, the t1/2 [4, 6] was 14.8 h and the t1/2 ([4]; pH 7.40, CD3OD/0.1M KD2PO4, 37° C.) was 146.3 h. For the same compound, the IC50 (CCRF-CEM cells) was 0.078 µg/mL (≈ 0.113 µM), the “Percent Inhibition” value ([2]; 25.0 mg/kg) was 97% and the “Percent Inhibition” value ([2]; 50.0 mg/kg) was 99%. The “Percent Inhibition” value ([2]; 100.0 mg/kg) was 99% and the “Activity (overall)” value [2] was “+++ (95-100% Inhibition)”.

Work on `COc1ccc(C(Nc2nc(N)nc3c2ncn3[C@@H]2O[C@H](CO)[C@@H](O)C2(F)F)(c2ccccc2)c2ccc(C(=O)NC(C)C)cc2)cc1` (stereo partly shown) [MMT] yielded a t1/2 [4, 5] of 16.7 h, a t1/2 ([4]; pH 6.40, CD3OD/0.1M KD2PO4, 37° C., extrapolated) of 547 h and a t1/2 [4, 7] of 800 h. The IC50 (CCRF-CEM cells) was 0.1 µg/mL (≈ 0.152 µM), the “Percent Inhibition” value ([2]; 32.5 mg/kg) was 95% and the “Percent Inhibition” value ([2]; 65.0 mg/kg) was 96%. For the same compound, the “Percent Inhibition” value ([2]; 130.0 mg/kg) was 93% and the “Activity (overall)” value [2] was “+++ (95-100% Inhibition)”.

For `COc1ccc(C(Nc2nc(N)nc3c2ncn3[C@@H]2O[C@H](CO)[C@@H](O)C2(F)F)(c2ccc(C)cc2)c2ccc(C(=O)NC(C)C)cc2)cc1` (stereo partly drawn) [MMeT, N-Isopropyl-4-[4-methoxyphenyl-4'methylphenyl-6-N-[2-amino-9-(2'-deoxy-2',2'-difluoro-β-ribofuranosyl)purinyl]methyl]benzamide], the IC50 (CCRF-CEM cells) was 0.1 µg/mL (≈ 0.148 µM), the “Percent Inhibition” value ([2]; 20.0 mg/kg) was 95% and the “Percent Inhibition” value ([2]; 40.0 mg/kg) was 98%. The “Percent Inhibition” value ([2]; 80.0 mg/kg) was 98% and the “Activity (overall)” value [2] was “+++ (95-100% Inhibition)”.

For `Cc1ccc(C(Nc2nc(N)nc3c2ncn3[C@@H]2O[C@H](CO)[C@@H](O)C2(F)F)(c2ccccc2)c2ccc(C(=O)NC(C)C)cc2)cc1` (stereo partly shown) [MeT], the IC50 (CCRF-CEM cells) was 0.8 µg/mL (≈ 1.24 µM), the “Percent Inhibition” value ([2]; 20.0 mg/kg) was 41% and the “Percent Inhibition” value ([2]; 40.0 mg/kg) was 58%. The “Percent Inhibition” value ([2]; 80.0 mg/kg) was 92% and the “Activity (overall)” value [2] was “++ (80-94% Inhibition)”.

For `CC(C)NC(=O)c1ccc(C(Nc2nc(N)nc3c2ncn3[C@@H]2O[C@H](CO)[C@@H](O)C2(F)F)(c2ccccc2)c2ccccc2)cc1` [T, N-Isopropyl-4-[bis-phenyl-6-N-[2-amino-9-(2'-deoxy-2',2'-difluoro-β-ribofuranosyl)purinyl]methyl]benzamide], the “fragmentation under pH conditions used” value ([4]; pH 5.40, 6.40, 7.40, up to t = 800) was “no fragmentation”, the IC50 (CCRF-CEM cells) was 1.7 µg/mL (≈ 2.7 µM) and the “Percent Inhibition” value ([2]; 17.5 mg/kg) was 14%. The “Percent Inhibition” value ([2]; 35.0 mg/kg) was 28%, the “Percent Inhibition” value ([2]; 70.0 mg/kg) was 04% and the “Activity (overall)” value [2] was “- (<60% Inhibition)”.

In the case of `COc1ccc(C(Nc2nc(N)nc3c2ncn3[C@@H]2O[C@H](CO)[C@@H](O)C2(F)F)(c2ccc(OC)cc2)c2cccc(C(=O)NC(C)C)c2)cc1` [mDMT, N-Isopropyl-3-[bis-(4-methoxyphenyl)-6-N-[2-amino-9-(2'-deoxy-2',2'-difluoro-β-ribofuranosyl)purinyl]methyl]benzamide], the t1/2 [4, 5] is reported as 2.35 h, the t1/2 [4, 6] is reported as 23.3 h and the t1/2 [4, 7] is reported as 133.3 h. The IC50 (CCRF-CEM cells) was 0.084 µg/mL (≈ 0.122 µM).
